Toxic doses and inconclusive results are not listed. No stated cut-off is given here; in the data, active means T/C of 150% or more; inactive means T/C below 125%.
Test system: L1210 leukemia ip in BDF1 mice, survival T/C
Test: NCI In Vivo Anticancer Drug Screen. Data for tumor model L1210 Leukemia (intraperitoneal) in B6D2F1 (BDF1) mice
Conditions: endpoint: mean survival time, higher = longer survival
Outline: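 Tumor cells were implanted, animals were treated, and survival was followed. The result divides the treated measurement by the vehicle-control measurement.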

[1] = dose: 50.0 mg/kg/injection, schedule: Q01DX009 (ip), vehicle: saline
[2] = dose: 100.0 mg/kg/injection, schedule: Q01DX009 (ip), vehicle: saline
[3] = dose: 100.0 mg/kg/injection, schedule: Q01DX001 (ip), vehicle: saline
[4] = dose: 200.0 mg/kg/injection, schedule: Q01DX001 (ip), vehicle: saline
[5] = dose: 400.0 mg/kg/injection, schedule: Q01DX001 (ip), vehicle: saline
[6] = dose: 100.0 mg/kg/injection, schedule: Q01DX009 (ip), vehicle: Klucel (hydroxypropylcellulose) (HPC)
[7] = dose: 200.0 mg/kg/injection, schedule: Q01DX009 (ip), vehicle: Klucel (hydroxypropylcellulose) (HPC)
[8] = dose: 400.0 mg/kg/injection, schedule: Q01DX009 (ip), vehicle: Klucel (hydroxypropylcellulose) (HPC)

Measured: T/C

C=CCNC(=O)c1ccc[n+](CC(=O)NCCCCCCCCCC)c1
inactive: dose: 12.5 mg/kg/injection, schedule: Q04DX003 (ip), vehicle: saline with Tween-80 95 % of control | dose: 25.0 mg/kg/injection, schedule: Q04DX003 (ip), vehicle: saline with Tween-80 101 % of control | dose: 50.0 mg/kg/injection, schedule: Q04DX003 (ip), vehicle: saline with Tween-80 94 % of control

O=C(NCc1ccccc1)c1ccccc1
inactive: dose: 100.0 mg/kg/injection, schedule: Q04DX003 (ip), vehicle: Klucel (hydroxypropylcellulose) (HPC) 97 % of control | dose: 200.0 mg/kg/injection, schedule: Q04DX003 (ip), vehicle: Klucel (hydroxypropylcellulose) (HPC) 95 % of control | dose: 400.0 mg/kg/injection, schedule: Q04DX003 (ip), vehicle: Klucel (hydroxypropylcellulose) (HPC) 100 % of control

O=c1[nH]c(Nc2ccccc2)c(-c2ccccc2)c(=O)[nH]1
inactive: dose: 47.5 mg/kg/injection, schedule: Q01DX001 (ip), vehicle: gum acacia 98 % of control | dose: 95.0 mg/kg/injection, schedule: Q01DX001 (ip), vehicle: gum acacia 88 % of control | dose: 190.0 mg/kg/injection, schedule: Q01DX001 (ip), vehicle: gum acacia 114 % of control

OCCCN1CCC2(CC1)SSC1(CCN(CCCO)CC1)S2
inactive: [1] 95 % of control | [2] 101 % of control | dose: 100.0 mg/kg/injection, schedule: Q04DX003 (ip), vehicle: saline 95 % of control | dose: 200.0 mg/kg/injection, schedule: Q04DX003 (ip), vehicle: saline 98 % of control

O=C(CCCC(=O)NNC(=O)Nc1ccc(Cl)cc1)NNC(=O)Nc1ccc(Cl)cc1
inactive: dose: 50.0 mg/kg/injection, schedule: Q01DX001 (ip), vehicle: saline 93 % of control | [3] 96 % of control | [4] 100 % of control | [5] 100 % of control

Cc1cccc(NC(=O)NCC(=O)NNC(=O)Nc2cc([N+](=O)[O-])ccc2C)n1
inactive: dose: 50.0 mg/kg/injection, schedule: Q01DX009 (ip), vehicle: Klucel (hydroxypropylcellulose) (HPC) 100 % of control | [6] 89 % of control | [7] 88 % of control

O=C(Nc1cccc(Cl)c1)OCC#CCCl
inactive: dose: 50.0 mg/kg/injection, schedule: Q01DX001 (ip), vehicle: saline sonified 97 % of control

COC(=O)C1CN(S(=O)(=O)c2ccccc2)c2ccccc2N1S(=O)(=O)c1ccccc1 (stereo not given)
inactive: dose: 100.0 mg/kg/injection, schedule: Q04DX003 (ip), vehicle: acetone 95 % of control | dose: 200.0 mg/kg/injection, schedule: Q04DX003 (ip), vehicle: acetone 100 % of control | dose: 400.0 mg/kg/injection, schedule: Q04DX003 (ip), vehicle: acetone 94 % of control

Clc1ccc(SCNCc2ccccc2)cc1
inactive: [3] 100 % of control | [4] 94 % of control | [5] 96 % of control

COC(=O)c1cc(C)cc(N)c1C
inactive: [3] 102 % of control | [4] 109 % of control | [5] 104 % of control

Cc1ccc(Cl)c(Br)c1
inactive: [3] 94 % of control | [4] 96 % of control | [5] 107 % of control

CN(C)S(=O)(=O)c1ccc2c(c1)N(CCCN1CCN(S(C)(=O)=O)CC1)c1ccccc1S2
inactive: dose: 25.0 mg/kg/injection, schedule: Q01DX009 (ip), vehicle: saline 95 % of control | [1] 101 % of control | [2] 91 % of control | dose: 200.0 mg/kg/injection, schedule: Q01DX009 (ip), vehicle: saline 98 % of control | dose: 400.0 mg/kg/injection, schedule: Q01DX009 (ip), vehicle: saline 106 % of control

N#Cc1nc(/C=C\c2ccc3c(c2)OCO3)cnc1N
inactive: dose: 100.0 mg/kg/injection, schedule: Q01DX001 (ip), vehicle: Klucel (hydroxypropylcellulose) (HPC) 106 % of control | dose: 200.0 mg/kg/injection, schedule: Q01DX001 (ip), vehicle: Klucel (hydroxypropylcellulose) (HPC) 95 % of control | dose: 400.0 mg/kg/injection, schedule: Q01DX001 (ip), vehicle: Klucel (hydroxypropylcellulose) (HPC) 89 % of control

CN(C)N=Nc1ccc(C(=O)Oc2ccc3c(c2)CCC2C3CCC3(C)C(=O)CCC23)cc1 (stereo not given)
inactive: [6] 90 % of control | [7] 92 % of control | [8] 88 % of control

Nc1nc(N)nc(CBr)n1
inactive: dose: 12.5 mg/kg/injection, schedule: Q01DX001 (ip), vehicle: Klucel (hydroxypropylcellulose) (HPC) 103 % of control | dose: 50.0 mg/kg/injection, schedule: Q01DX001 (ip), vehicle: Klucel (hydroxypropylcellulose) (HPC) 115 % of control

O=c1[nH]cnc2c1ncn2Cc1cccc(Cl)c1
inactive: dose: 50.0 mg/kg/injection, schedule: Q04DX002 (ip), vehicle: Klucel (hydroxypropylcellulose) (HPC) 86 % of control | dose: 100.0 mg/kg/injection, schedule: Q04DX002 (ip), vehicle: Klucel (hydroxypropylcellulose) (HPC) 94 % of control | dose: 200.0 mg/kg/injection, schedule: Q04DX002 (ip), vehicle: Klucel (hydroxypropylcellulose) (HPC) 91 % of control

O=C1C2C=CC=CC1C1C=CC2C1
inactive: dose: 100.0 mg/kg/injection, schedule: Q01DX001 (ip), vehicle: saline with Tween-80 93 % of control | dose: 200.0 mg/kg/injection, schedule: Q01DX001 (ip), vehicle: saline with Tween-80 104 % of control | dose: 400.0 mg/kg/injection, schedule: Q01DX001 (ip), vehicle: saline with Tween-80 101 % of control

CN1CC(=O)N=C1N
inactive: [3] 92 % of control | [4] 103 % of control | dose: 200.0 mg/kg/injection, schedule: Q01DX015 (ip), vehicle: saline 91 % of control | dose: 250.0 mg/kg/injection, schedule: Q#A X Z (ip), vehicle: water 109 % of control | [5] 92 % of control | dose: 400.0 mg/kg/injection, schedule: Q01DX015 (ip), vehicle: saline 121 % of control | dose: 500.0 mg/kg/injection, schedule: Q#A X Z (ip), vehicle: water 100 % of control | dose: 800.0 mg/kg/injection, schedule: Q01DX015 (ip), vehicle: saline 94 % of control | dose: 1250.0 mg/kg/injection, schedule: Q#A X Z (ip), vehicle: water 100 % of control | dose: 1600.0 mg/kg/injection, schedule: Q01DX015 (ip), vehicle: saline 100 % of control

CCCc1ccc(C(=O)O)cc1
inactive: [6] 95 % of control | [7] 91 % of control | [8] 98 % of control
